Measurements from ChEMBL document CHEMBL3044799, “Biological activity of the succinate dehydrogenase inhibitor fluopyram against Botrytis cinerea and fungal baseline sensitivity” (Pest Manag Sci, 2012).
≈ marks a conversion by molar mass, not a printed value. Calls of active or inactive are those of the source. The rule behind the calls is not given here.

Columns and labels:
Botrytis cinerea [1] = experiment: Curative antifungal activity against Botryotinia fuckeliana inoculated in strawberry fruit assessed as disease control efficacy at 100 ug AI/ml applied 24 hr post-inoculation relative to control; type: functional
Botrytis cinerea [2] = experiment: Curative antifungal activity against Botryotinia fuckeliana inoculated in strawberry fruit assessed as disease control efficacy at 50 ug AI/ml applied 24 hr post-inoculation relative to control; type: functional
Botrytis cinerea [3] = experiment: Curative antifungal activity against Botryotinia fuckeliana inoculated in strawberry fruit assessed as disease control efficacy at 10 ug AI/ml applied 24 hr post-inoculation relative to control; type: functional
Botrytis cinerea [4] = experiment: Curative antifungal activity against Botryotinia fuckeliana inoculated in strawberry fruit assessed as disease severity measuring lesion diameter at 50 ug AI/ml applied 24 hr post-inoculation; type: functional
Botrytis cinerea [5] = experiment: Curative antifungal activity against Botryotinia fuckeliana inoculated in strawberry fruit assessed as disease severity measuring lesion diameter at 10 ug AI/ml applied 24 hr post-inoculation; type: functional
Botrytis cinerea [6] = experiment: Curative antifungal activity against Botryotinia fuckeliana inoculated in strawberry fruit assessed as disease severity measuring lesion diameter at 1 ug AI/ml applied 24 hr post-inoculation; type: functional
Botrytis cinerea [7] = experiment: Curative antifungal activity against Botryotinia fuckeliana inoculated in strawberry fruit assessed as disease control efficacy at 100 ug AI/ml applied 48 hr post-inoculation relative to control; type: functional
Botrytis cinerea [8] = experiment: Curative antifungal activity against Botryotinia fuckeliana inoculated in strawberry fruit assessed as disease severity measuring lesion diameter at 100 ug AI/ml applied 48 hr post-inoculation; type: functional
Botrytis cinerea [9] = experiment: Curative antifungal activity against Botryotinia fuckeliana inoculated in strawberry fruit assessed as disease severity measuring lesion diameter at 50 ug AI/ml applied 48 hr post-inoculation; type: functional
Botrytis cinerea [10] = experiment: Curative antifungal activity against Botryotinia fuckeliana inoculated in strawberry fruit assessed as disease severity measuring lesion diameter at 10 ug AI/ml applied 48 hr post-inoculation; type: functional
Botrytis cinerea [11] = experiment: Antifungal activity against Botryotinia fuckeliana obtained from cucumber isolate assessed as inhibition of spore germ tube growth; type: functional, organism-based
Botrytis cinerea [12] = experiment: Antifungal activity against Botryotinia fuckeliana obtained from grape isolate assessed as inhibition of spore germ tube growth; type: functional, organism-based
Botrytis cinerea [13] = experiment: Antifungal activity against Botryotinia fuckeliana obtained from tomato isolate assessed as inhibition of spore germ tube growth; type: functional, organism-based
Botrytis cinerea [14] = experiment: Antifungal activity against Botryotinia fuckeliana grown on succinate medium assessed as inhibition of mycelial growth at 10 ug/ml after 10 days; type: functional, organism-based
Botrytis cinerea [15] = experiment: Antifungal activity against Botryotinia fuckeliana grown on YBA agar assessed as inhibition of mycelial growth at 5 ug/ml after 10 days; type: functional, organism-based
Botrytis cinerea [16] = experiment: Antifungal activity against Botryotinia fuckeliana grown on succinate medium assessed as inhibition of germ tube growth at 5 ug/ml after 10 days; type: functional, organism-based
Botrytis cinerea [17] = experiment: Curative antifungal activity against Botryotinia fuckeliana inoculated in strawberry fruit assessed as disease control efficacy at 50 ug AI/ml applied 96 hr post-inoculation relative to control; type: functional
Botrytis cinerea [18] = experiment: Curative antifungal activity against Botryotinia fuckeliana inoculated in strawberry fruit assessed as disease control efficacy at 1 ug AI/ml applied 96 hr post-inoculation relative to control; type: functional
Botrytis cinerea [19] = experiment: Antifungal activity against Botryotinia fuckeliana grown on YBA agar assessed as inhibition of germ tube growth at 1 ug/ml after 10 days; type: functional, organism-based
Botrytis cinerea [20] = experiment: Antifungal activity against Botryotinia fuckeliana grown on water agar assessed as inhibition of germ tube growth at 1 ug/ml after 10 days; type: functional, organism-based
Botrytis cinerea [21] = experiment: Antifungal activity against Botryotinia fuckeliana grown on water agar assessed as inhibition of spore germination at 1 ug/ml after 10 days; type: functional, organism-based
Botrytis cinerea [22] = experiment: Antifungal activity against Botryotinia fuckeliana assessed as inhibition of germ tube growth at 0.001 to 10 ug/ml after 10 days; type: functional, organism-based
Botrytis cinerea [23] = experiment: Protective antifungal activity against Botryotinia fuckeliana inoculated in fungicide-applied strawberry fruit assessed as disease severity measuring lesion diameter at 100 ug AI/ml applied 96 hr prior-inoculation; type: functional
Botrytis cinerea [24] = experiment: Protective antifungal activity against Botryotinia fuckeliana inoculated in fungicide-applied strawberry fruit assessed as disease severity measuring lesion diameter at 10 ug AI/ml applied 96 hr prior-inoculation; type: functional
Botrytis cinerea [25] = experiment: Protective antifungal activity against Botryotinia fuckeliana inoculated in fungicide-applied strawberry fruit assessed as disease severity measuring lesion diameter at 1 ug AI/ml applied 96 hr prior-inoculation; type: functional
Botrytis cinerea [26] = experiment: Antifungal activity against Botryotinia fuckeliana obtained from kiwi fruit isolate assessed as inhibition of spore germ tube growth; type: functional, organism-based
Botrytis cinerea [27] = experiment: Curative antifungal activity against Botryotinia fuckeliana inoculated in strawberry fruit assessed as disease severity measuring lesion diameter at 10 ug AI/ml applied 96 hr post-inoculation; type: functional
Botrytis cinerea [28] = experiment: Curative antifungal activity against Botryotinia fuckeliana inoculated in strawberry fruit assessed as disease severity measuring lesion diameter at 1 ug AI/ml applied 96 hr post-inoculation; type: functional
Botrytis cinerea [29] = experiment: Protective antifungal activity against Botryotinia fuckeliana inoculated in fungicide-applied strawberry fruit assessed as disease severity measuring lesion diameter at 50 ug AI/ml applied 24 hr prior inoculation; type: functional
Botrytis cinerea [30] = experiment: Protective antifungal activity against Botryotinia fuckeliana inoculated in fungicide-applied strawberry fruit assessed as disease severity measuring lesion diameter at 10 ug AI/ml applied 24 hr prior inoculation; type: functional
Botrytis cinerea [31] = experiment: Protective antifungal activity against Botryotinia fuckeliana inoculated in fungicide-applied strawberry fruit assessed as disease control efficacy at 50 ug AI/ml applied 48 hr prior inoculation relative to control; type: functional
Botrytis cinerea [32] = experiment: Protective antifungal activity against Botryotinia fuckeliana inoculated in fungicide-applied strawberry fruit assessed as disease control efficacy at 10 ug AI/ml applied 48 hr prior inoculation relative to control; type: functional
Botrytis cinerea [33] = experiment: Protective antifungal activity against Botryotinia fuckeliana inoculated in fungicide-applied strawberry fruit assessed as disease severity measuring lesion diameter at 100 ug AI/ml applied 48 hr prior inoculation; type: functional
Botrytis cinerea [34] = experiment: Protective antifungal activity against Botryotinia fuckeliana inoculated in fungicide-applied strawberry fruit assessed as disease severity measuring lesion diameter at 10 ug AI/ml applied 48 hr prior inoculation; type: functional
Botrytis cinerea [35] = experiment: Protective antifungal activity against Botryotinia fuckeliana inoculated in fungicide-applied strawberry fruit assessed as disease control efficacy at 100 ug AI/ml applied 96 hr prior-inoculation relative to control; type: functional
Botrytis cinerea [36] = experiment: Protective antifungal activity against Botryotinia fuckeliana inoculated in fungicide-applied strawberry fruit assessed as disease control efficacy at 50 ug AI/ml applied 96 hr prior-inoculation relative to control; type: functional
Botrytis cinerea [37] = experiment: Protective antifungal activity against Botryotinia fuckeliana inoculated in fungicide-applied strawberry fruit assessed as disease control efficacy at 10 ug AI/ml applied 96 hr prior-inoculation relative to control; type: functional
Botrytis cinerea [38] = experiment: Protective antifungal activity against Botryotinia fuckeliana inoculated in fungicide-applied strawberry fruit assessed as disease control efficacy at 10 ug AI/ml applied 24 hr prior inoculation relative to control; type: functional
Botrytis cinerea [39] = experiment: Protective antifungal activity against Botryotinia fuckeliana inoculated in fungicide-applied strawberry fruit assessed as disease control efficacy at 1 ug AI/ml applied 24 hr prior inoculation relative to control; type: functional
Botrytis cinerea [40] = experiment: Protective antifungal activity against Botryotinia fuckeliana inoculated in fungicide-applied strawberry fruit assessed as disease severity measuring lesion diameter at 100 ug AI/ml applied 24 hr prior inoculation; type: functional

Compound: O=C(NCCc1ncc(C(F)(F)F)cc1Cl)c1ccccc1C(F)(F)F [FLUOPYRAM]
- Efficacy (Botrytis cinerea [1]): 79.3%
- Efficacy (Botrytis cinerea [2]): 77.3%
- Efficacy (Botrytis cinerea [3]): 69.7%
- Activity (Botrytis cinerea [4]): 4.2 mm
- Activity (Botrytis cinerea [5]): 5.7 mm
- Activity (Botrytis cinerea [6]): 8.8 mm
- Efficacy (Botrytis cinerea [7]): 92.2%
- Activity (Botrytis cinerea [8]): 1.4 mm
- Activity (Botrytis cinerea [9]): 3.2 mm
- Activity (Botrytis cinerea [10]): 3.5 mm
- EC50 (Botrytis cinerea [11]): 0.1 µg/mL (≈ 0.252 µM)
- EC50 (Botrytis cinerea [12]): 0.13 µg/mL (≈ 0.328 µM)
- EC50 (Botrytis cinerea [13]): 0.11 µg/mL (≈ 0.277 µM)
- growth inhibition (GI) (Botrytis cinerea [14]): inactive
- growth inhibition (GI) (Botrytis cinerea [15]): Active
- growth inhibition (GI) (Botrytis cinerea [16]): Active
- Efficacy (Botrytis cinerea [17]): 45.1%
- Efficacy (Botrytis cinerea [18]): 37.2%
- growth inhibition (GI) (Botrytis cinerea [19]): Active
- growth inhibition (GI) (Botrytis cinerea [20]): Active
- growth inhibition (GI) (Botrytis cinerea [21]): Active
- growth inhibition (GI) (Botrytis cinerea [22]): Active
- Activity (Botrytis cinerea [23]): 0.7 mm
- Activity (Botrytis cinerea [24]): 4.2 mm
- Activity (Botrytis cinerea [25]): 8.7 mm
- EC50 (Botrytis cinerea [26]): 0.1 µg/mL (≈ 0.252 µM)
- Activity (Botrytis cinerea [27]): 11.1 mm
- Activity (Botrytis cinerea [28]): 11.8 mm
- Activity (Botrytis cinerea [29]): 1.1 mm
- Activity (Botrytis cinerea [30]): 4.2 mm
- Efficacy (Botrytis cinerea [31]): 87.7%
- Efficacy (Botrytis cinerea [32]): 70.8%
- Activity (Botrytis cinerea [33]): 1.1 mm
- Activity (Botrytis cinerea [34]): 5.5 mm
- Efficacy (Botrytis cinerea [35]): 93.9%
- Efficacy (Botrytis cinerea [36]): 79.2%
- Efficacy (Botrytis cinerea [37]): 66.3%
- Efficacy (Botrytis cinerea [38]): 77.2%
- Efficacy (Botrytis cinerea [39]): 66.4%
- Activity (Botrytis cinerea [40]): 0 mm
